Literature values, collected in patent US20260272852A1, “COAGULATION PATHWAY AND NICOTINAMIDE-ADENINE DINUCLEOTIDE PATHWAY MODULATING COMPOSITIONS AND METHODS OF THEIR USE” (L'OREAL, priority 2021, published 2026).

Experiments:
[1] = topical 4% niacinamide treatment
[2] = tested on: hyperpigmentation spots, fine lines, and wrinkles; conditions: moisturizer containing 5% niacinamide, half of face, 12 weeks
[3] = tested on: suction induced petechia formation; conditions: 0.5% vitamin K1 cream twice daily for one week, ten healthy individuals
[4] = tested on: 585-nm pulsed dye laser-induced purpuras

NC(=O)c1cccnc1 [niacinamide]
Treated patients with good-to-excellent results [1]: 44% | Hyperpigmentation spots, fine lines, and wrinkles, treated side compared to control side [2]: significant improvements

CC1=C(C/C=C(\C)CCC[C@H](C)CCC[C@H](C)CCCC(C)C)C(=O)c2ccccc2C1=O [vitamin K1, phylloquinone]
Influence on suction induced petechia formation [3]: no influence

vitamin K
Effect of pretreatment on 585-nm pulsed dye laser-induced purpuras [4]: no effect
